Laboratory results as given in US7824668B2, “Compositions for attracting stink bugs” (Cotton Incorporated, priority 2006, dated 2010).

How the values were obtained:
Assay type in all cases: in vivo
Euschistus servus = test: Tedders trap field capture of Euschistus servus, pheromone with vs without geraniol synergist; settings: 160 mg geraniol + 200 mg methyl (2E,4Z)-decadienoate vs pheromone alone
Procedure: An experiment was carried out near Starkville, Oktibbeha County in Mississippi to study the response of Euschistus servus to a pheromone synergist. Geraniol was used as a synergist with methyl (2E,4Z)-decadienoate, a pheromone for Euschistus servus. Tedders traps were used in the experiment. Each treatment trap was baited with 160 mg geraniol and 200 mg methyl (2E,4Z)-decadienoate and each control trap was baited with 200 mg methyl (2E,4Z)-decadienoate. The control trap contained no geraniol or any other synergist. The trapped adult insects of Euschistus servos were collected on a daily basis and their total numbers were counted. Statistical analysis was done using the Least Squares means separation from the SAS GLM procedure.

Euschistus tristigmus = test: Tedders trap field capture of Euschistus tristigmus, pheromone with vs without geraniol synergist; settings: soybean field; 160 mg geraniol + 200 mg methyl (2E,4Z)-decadienoate vs 200 mg methyl (2E,4Z)-decadienoate alone; Pr>t 0.04
Procedure: An experiment was carried out near Starkville, Oktibbeha County in Mississippi to study the response of Euschistus tristigmus in a crop field to a pheromone synergist. The crop field was a soybean field bordered on two sides by woods. Geraniol was used as a synergist with methyl (2E,4Z)-decadienoate, a pheromone for Euschistus tristigmus. Tedders traps were used in the experiment. Each trap was baited with 160 mg geraniol and 200 mg methyl (2E,4Z)-decadienoate and each control trap was baited with 200 mg methyl (2E,4Z)-decadienoate. The control trap contained no geraniol or other synergists. The trapped adult insects of Euschistus tristigmus were collected on a daily basis and the total number of trapped insects was counted. Statistical analysis was done using the Least Squares means separation from the SAS GLM procedure.

Euschistus species = test: Tedders trap field capture of Euschistus species, pheromone with vs without geraniol synergist; settings: soybean field, Monticello, Ark.; 160 mg geraniol + 200 mg methyl (2E,4Z)-decadienoate vs pheromone alone; Pr>t 0.09
Procedure: An experiment was carried out in Monticello, Ark. to study the response of Euschistus species in a soybean field to a pheromone synergist. Geraniol was used as a synergist to methyl (2E,4Z)-decadienoate, which is a pheromone for both Euschistus species. […] traps were used in the experiment. Each treatment trap was baited with 160 mg geraniol and 200 mg methyl (2E,4Z)-decadienoate and each control trap was baited with 200 mg methyl (2E,4Z)-decadienoate. The control traps contained no geraniol or any other synergist. The trapped adult insects of Euschistus species were collected on a daily basis and their total numbers were counted. Statistical analysis was done using the Least Squares means separation from the SAS GLM procedure.

Q: `CC(C)=CCC/C(C)=C/CO` [geraniol, E-(3,7)-Dimethyl-2,6-octadien-1-ol] was tested. Which “increase in the number of captured bugs” value (Euschistus servus; crepe myrtle field, Pr>t 0.51) did it give?
A: ~72%

Q: And the “increase in the number of captured bugs” value (Euschistus servus; field of mixed crops of plum and okra, Pr>t 0.02)?
A: ~92%

Q: And the “increase in the number of captured bugs” value (Euschistus servus; new-peach field, Pr>t 0.05)?
A: ~251%

Q: What about the “increase in the number of captured bugs” value (Euschistus servus; old-peach field, Pr>t 0.02) of the same compound?
A: ~122%

Q: What about the “increase in the number of captured bugs” value (Euschistus servus; soybean field, Pr>t 0.61) of the same compound?
A: ~14%

Q: And the “increase in the number of captured Euchistus tristigmus” value (Euschistus tristigmus)?
A: ~75%

Q: What about the “increase in the number of captured bugs” value (Euschistus species) of the same compound?
A: ~269%
